Measurements taken from US6623723B2, “Method for treating bronchial constriction and bronchospasm” (Cellular Sciences Inc., priority 2001, dated 2003).

Tested on: subjects with mild bronchial asthma
Assay: Lung function (FEV-1 and PEF by spirometry) after a single inhaled dose in mild asthmatics
Format: in vivo, human
Conditions: single 5 ml inhaled dose
Protocol: Three concentrations of sodium pyruvate were studied; 0.5 mM, 1.5 mM and 5.0 mM. Sixty (60) subjects completed the study protocol. The 60 subjects included fifteen (15) non-asthmatic control individuals and forty-five (45) individuals with mild bronchial asthma. […] The total subject population was composed of 40 females and 20 males with a mean population age of 36.6 years (range of 18-66 years).
Individuals with mild bronchial asthma were divided into three groups of 15 subjects; each group received one of the three concentrations of sodium pyruvate. Each subject each inhaled a single dose of physiological saline (Visit 1) and on a return visit inhaled a single dose of 5.0 ml of one of the concentrations of sodium pyruvate (Visit 2).
Lung function assessments and vital signs were monitored at baseline (pre-dose) and at 15 minutes, 30 minutes 1 hour, 2 hours and 4 hours post administration. On a return visit (Visit 2), each subject inhaled a single 5 ml dose of sodium pyruvate in physiological saline. The physiological lung functions assessed included Forced Expiratory Volume in One Second (FEV-1) and Peak Expiratory Flow (PEF).
An FEV-1 and PEF values are obtained during routine spirometry testing. FEV-1 is the volume of air expelled in the first second of a forced expiration starting from full inspiration. It is the most widely accepted indicator of obstructive lung disease severity and used because it is objective and reproducible. PEF is the greatest flow rate that can be sustained for 10 milliseconds on forced expiration from full inflation of the lungs. Changes of greater than 10% FEV-1 and greater than 25% in PEF are generally accepted as clinically relevant ant were used as standards in data evaluation for this study.

CC(=O)C(=O)[O-].[Na+] [sodium pyruvate]
percent change in FEV-1 (0.5 mM sodium pyruvate, 15 minutes (p=0.012), 30 minutes (p=0.039), 1 hour (p=0.054), 2 hours (p=0.0001), compared to inhalation of physiological saline): greater than 10% | percent change in PEF (0.5 mM sodium pyruvate, 15 minutes (p=0.014), 30 minutes (p=0.027), 1 hour (p=0.012), 2 hours (p=0.024), 4 hours (p=0.018), compared to inhalation of physiological saline): greater than 25% | change in FEV-1 (1.5 mM sodium pyruvate): No significant change | change in PEF (1.5 mM sodium pyruvate): No significant change | change in FEV-1 (5.0 mM sodium pyruvate): No significant change | change in PEF (5.0 mM sodium pyruvate): No significant change
